Legend:
A549 = experiment: Alamar blue cytotoxicity assay; assay type: cell-based, human; conditions: 72 h, read-out: IC50 and 95%CI
Description: (§1) The Alamar blue assay was used to determine cell viability as previously described. Cells were seeded into 96-well plates at a density of 7 × 10^3 cells per well for adherent cells or 3 × 10^4 cells per well for suspended cells. The drug was added to each well after 24 h of incubation for adherent cells or immediately for suspended cells and incubated for an additional 72 h. […] Each well received 100 µM resazurin (Sigma-Aldrich Co. St. Louis, MO, United States) four (for cell lines) or 24 (for primary culture) h before the end of the incubation. A SpectraMax 190 Microplate Reader (Molecular Devices, Sunnyvale, CA, USA) was used to measure absorbance at 570 and 600 nm.

HL-60 = experiment: Alamar blue cytotoxicity assay; assay type: cell-based, human; conditions: 72 h, read-out: IC50 and 95%CI
Description: as §1

H1299 = experiment: Alamar blue cytotoxicity assay; assay type: cell-based, human; conditions: 72 h, read-out: IC50 and 95%CI
Description: as §1

MCF-7 = experiment: Alamar blue cytotoxicity assay; assay type: cell-based, human; conditions: 72 h, read-out: IC50 and 95%CI
Description: as §1

K-562 = experiment: Alamar blue cytotoxicity assay; assay type: cell-based, human; conditions: 72 h, read-out: IC50 and 95%CI
Description: as §1

PANC-1 = experiment: Alamar blue cytotoxicity assay; assay type: cell-based, human; conditions: 72 h, read-out: IC50 and 95%CI
Description: as §1

A-375 = experiment: Alamar blue cytotoxicity assay; assay type: cell-based, human; conditions: 72 h, read-out: IC50 and 95%CI
Description: as §1

HepG2 = experiment: Alamar blue cytotoxicity assay; assay type: cell-based, human; conditions: 72 h, read-out: IC50 and 95%CI
Description: as §1

NB4 = experiment: Alamar blue cytotoxicity assay; assay type: cell-based, human; conditions: 72 h, read-out: IC50 and 95%CI
Description: as §1

HSC-3 = experiment: Alamar blue cytotoxicity assay; assay type: cell-based, human; conditions: 72 h, read-out: IC50 and 95%CI
Description: as §1

SCC-25 = experiment: Alamar blue cytotoxicity assay; assay type: cell-based, human; conditions: 72 h, read-out: IC50 and 95%CI
Description: as §1

THP-1 = experiment: Alamar blue cytotoxicity assay; assay type: cell-based, human; conditions: 72 h, read-out: IC50 and 95%CI
Description: as §1

U-87 MG = experiment: Alamar blue cytotoxicity assay; assay type: cell-based, human; conditions: 72 h, read-out: IC50 and 95%CI
Description: as §1

DU 145 = experiment: Alamar blue cytotoxicity assay; assay type: cell-based, human; conditions: 72 h, read-out: IC50 and 95%CI
Description: as §1

JUKART = experiment: Alamar blue cytotoxicity assay; assay type: cell-based, human; conditions: 72 h, read-out: IC50 and 95%CI
Description: as §1

SCC4 = experiment: Alamar blue cytotoxicity assay; assay type: cell-based, human; conditions: 72 h, read-out: IC50 and 95%CI
Description: as §1

SCC-9 = experiment: Alamar blue cytotoxicity assay; assay type: cell-based, human; conditions: 72 h, read-out: IC50 and 95%CI
Description: as §1

MDA-MB-231 = experiment: Alamar blue cytotoxicity assay; assay type: cell-based, human; conditions: 72 h, read-out: IC50 and 95%CI
Description: as §1

MRC-5 = experiment: Alamar blue cytotoxicity assay, noncancerous cells; assay type: cell-based, human; conditions: MRC-5 noncancerous cells, 72 h, read-out: IC50 and 95%CI
Description: as §1

PBMC = experiment: Alamar blue cytotoxicity assay, noncancerous cells; assay type: cell-based, human; conditions: 72 h, read-out: IC50 and 95%CI
Description: as §1

BJ = experiment: Alamar blue cytotoxicity assay, noncancerous cells; assay type: cell-based, human; conditions: 72 h, read-out: IC50 and 95%CI
Description: as §1

HCT116 cells [1] = experiment: Wound healing assay; assay type: cell-based, human; conditions: 72 h, noncytotoxic concentrations
Description: Wound healing assays were carried out as previously described, with some modifications. Cells were grown to 80–90% confluency in 12-well plates, and a wound was created by dragging a plastic pipette tip across the cell surface. The remaining cells were washed three times in saline to remove cell debris before being incubated in serum-free medium and treated with the drug. Using an optical microscope, migrating cells in front of the wound were photographed after 0 and 72 h of incubation (Nikon, TS 100). ImageJ software was used to calculate the wound area (NIH, USA).

HCT116 cells [2] = experiment: CRC tumor growth xenograft model; assay type: in vivo, C. B-17 SCID mice; conditions: 2 mg/kg i.p. once a day for 2 weeks; control 0.81 ± 0.09 g
Description: HCT116 cells (10^7 cells/500 μl) were inoculated subcutaneously into the left front armpit of mice, as previously reported. The animals were then treated intraperitoneally (200 μl/animal) once a day for 2 weeks. […] The animals were euthanized with an anesthetic overdose (thiopental, 100 mg/kg) 1 day after treatment ended, and tumors were excised, weighed, and processed for histological analysis. The inhibition ratio (percent) was calculated as follows: inhibition ratio (percent) = [(A − B)/A] × 100, where A is the average tumor weight of the negative control and B is the treated group.

HCT116 cells [3] = experiment: Protein expression levels by flow cytometry; assay type: cell-based, human; conditions: 10 μM, 24 h
Description: Flow cytometry was used to measure protein expression levels using primary antibodies conjugated with specific fluorochromes, as detailed in Table S5. For intracellular protein staining, cells were collected and resuspended in 0.5–1 ml of 4% formaldehyde for 10 min at 37 °C. The tubes were then kept on ice for 1 min and permeabilized for 30 min on ice by slowly adding ice-cold 100% methanol to prechilled cells while gently vortexing to a final concentration of 90% methanol. After washing with incubation buffer (0.5% bovine serum albumin in PBS), antibodies were added and incubated at room temperature for 1 h. Finally, the cells were washed with PBS, and the fluorescence of the cells was measured using flow cytometry.
For cell surface protein staining, cells were washed with incubation buffer (0.5% bovine serum albumin in PBS), and then antibodies were added and incubated for 1 h at room temperature. The cells were then washed with PBS, and cell fluorescence was measured using flow cytometry. To select viable cells for quantification of CD133-positive cells, YO-PRO-1 (Sigma-Aldrich Co.) was used.
For all flow cytometry analyses, cell fluorescence was measured with a BD LSRFortessa cytometer and analyzed by BD FACSDiva Software (BD Biosciences) and FlowJo Software 10 (FlowJo LLC; Ashland, OR, USA). At least 10,000 events were evaluated per sample for intracellular staining, and at least 30,000 events were acquired per sample for cell surface protein staining. FSC-A versus FCS-H and SCC-A versus SCC-H were used to remove the doublets. The analysis excluded cellular debris.

Substance: cis-[Ru(phen)2(xant)](PF6) [RXC]
- IC50 (A549): 7.03 µM
- IC50 (HL-60): 3.2 µM
- IC50 (H1299): 10.9 µM
- IC50 (MCF-7): 9.55 µM
- IC50 (K-562): 3.88 µM
- IC50 (PANC-1): 11.8 µM
- IC50 (A-375): 3.46 µM
- IC50 (HepG2): 6.28 µM
- IC50 (NB4): 3.38 µM
- IC50 (HSC-3): 4.84 µM
- IC50 (SCC-25): 10.2 µM
- IC50 (THP-1): 2800 nM
- IC50 (U-87 MG): 7.03 µM
- IC50 (DU 145): 4.17 µM
- IC50 (JUKART): 4.08 µM
- IC50 (SCC4): 1890 nM
- IC50 (SCC-9): 2810 nM
- IC50 (MDA-MB-231): 2360 nM
- IC50 (MRC-5): 21.4 µM
- IC50 (PBMC): 4.93 µM
- IC50 (BJ): 760 nM
- cell migration (HCT116 cells [1]): inhibited cell migration
- mean weight of tumors (HCT116 cells [2]): 0.6 ± 0.05 g
- lung histology (2 mg/kg, one animal): hemorrhage with hemosiderin deposits
- hematological analysis (RXC 2 mg/kg, DOX 0.8 mg/kg, i.p. once a day for 2 weeks): reduction in erythrocytes
- animals died during the treatment (RXC 2 mg/kg, DOX 0.8 mg/kg, i.p. once a day for 2 weeks, n = 15 per group): four
- body weight (RXC 2 mg/kg, DOX 0.8 mg/kg, i.p. once a day for 2 weeks, p < 0.05): decrease in body weight
- liver histology (RXC 2 mg/kg, DOX 0.8 mg/kg, mainly in treated animals): focal areas of hepatocyte coagulation necrosis
- kidney histology (RXC 2 mg/kg, DOX 0.8 mg/kg, more evident than in control): focal areas of coagulation necrosis of the renal cortex tubules
- E-cadherin expression (HCT116 cells [3]): increased
- LC3B expression (HCT116 cells [3]): increased
- expression level of 4EBP1 (pT36/pT45) (HCT116 cells [3]): decreased
- expression level of Akt1 (HCT116 cells [3]): decreased
- expression level of Akt (pS473) (HCT116 cells [3]): decreased
- expression level of Akt (pT308) (HCT116 cells [3]): no change
- expression level of GSK-3β (pS9) (HCT116 cells [3]): decreased
- expression level of NF-κB p65 (pS529) (HCT116 cells [3]): decreased
- expression level of PI3K p85/p55 (pT458/pT199) (HCT116 cells [3]): no change
- expression level of S6 (pS235/pS236) (HCT116 cells [3]): no change
- expression level of elF4E (pS209) (HCT116 cells [3]): no change
- expression level of mTOR (pS2448) (HCT116 cells [3]): decreased
- expression of Hsp90 protein (HCT116 cells [3]): decreased
- levels of PARP cleavage (Asp214) (HCT116 cells [3]): increased
- p62/SQSTM1 expression (HCT116 cells [3]): decreasing
- vimentin expression (HCT116 cells [3]): decreased

From publication PMC10724293, “New ruthenium-xanthoxylin complex eliminates colorectal cancer stem cells by targeting the heat shock protein 90 chaperone” (Cell Death & Disease, 2023)
